# Experimental data reported in PubChem BioAssay (NCI).
#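 96-well plates; 48 h exposure; 5 concentrations. Endpoints by linear interpolation between flanking doses. Not reached: highest tested concentration assigned. GI50 marks 50% less growth. TGI is the concentration that stops growth completely.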
# What was measured:
# Experiment in all cases: inhibition of tumour cell growth, NCI panel, 48 h
# U251 CNS = tested on: U251 CNS
# CCRF-CEM leukemia = tested on: CCRF-CEM leukemia
# MOLT-4 leukemia = tested on: MOLT-4 leukemia
# CAKI-1 renal = tested on: CAKI-1 renal
# OVCAR-8 ovarian = tested on: OVCAR-8 ovarian
# MCF7 breast = tested on: MCF7 breast
# HCT-15 colon = tested on: HCT-15 colon
# A498 renal = tested on: A498 renal
# LOX IMVI melanoma = tested on: LOX IMVI melanoma
# BT-549 breast = tested on: BT-549 breast
Structure (SMILES),TGI (U251 CNS) [µM],TGI (CCRF-CEM leukemia) [µM],TGI (MOLT-4 leukemia) [µM],TGI (CAKI-1 renal) [µM],TGI (OVCAR-8 ovarian) [µM],TGI (MCF7 breast) [µM],TGI (HCT-15 colon) [µM],GI50 (A498 renal) [µM],TGI (A498 renal) [µM],GI50 (OVCAR-8 ovarian) [µM],TGI (LOX IMVI melanoma) [µM],TGI (BT-549 breast) [µM],GI50 (CCRF-CEM leukemia) [µM],GI50 (MOLT-4 leukemia) [µM],GI50 (CAKI-1 renal) [µM],GI50 (BT-549 breast) [µM],GI50 (HCT-15 colon) [µM]
COc1ccc(C(=O)/C=C/c2ccc(OCCCCCCCCCCOc3ccc(/C=C/C(=O)c4ccc(OC)c(OC)c4)cc3)cc2)c(OC)c1,> 100,> 100,> 100,> 100,> 100,> 100,> 100,,,,,,,,,,
CCc1ccc(OCc2ccccc2C(=O)Nc2ccc3nc(C)cc(N)c3c2)cc1,,,,,4.61,,,1.5,3,1.68,,,,,,,
CN(C)CCN1C(=O)N(CCN(C)C)c2c3cc(O)ccc3nc3c([N+](=O)[O-])ccc1c23,24.4,20,,47.9,36,,20.8,,29.6,,24.3,40.6,,,,,
Clc1sc(Cl)c2c1[C@H](Br)C[C@@H]2Cl,83.8,52.9,53.1,64.2,99,50.8,40.7,,,,49.5,40.3,,,,,
CC1CCc2sc3[nH]c(=S)n(C)c(=O)c3c2C1 (centres undefined),> 100,,> 100,> 100,> 100,> 100,> 100,,,,> 100,> 100,,,,,
O=C(O)Cn1c[n+](NC(=O)Cc2ccccc2)cn1,> 10,> 10,> 10,> 10,> 10,> 10,> 10,,> 10,,> 10,> 10,,,,,
CC(C)NC(=O)OCc1c(COC(=O)NC(C)C)n(C)c2c1ccc1cc(Cl)c(Cl)cc12,29.3,> 100,27.9,12.6,23.8,14.9,28.7,,4.85,,20.9,30.7,,,,,
CC(=O)Oc1ccc2c(c1)O/C(=C\c1ccc(O)cc1)C2=O,> 100,> 100,> 100,> 100,> 100,> 100,> 100,,,,,> 100,,,,,
O=C1c2c(Br)sc(Br)c2[C@H]2OC(=S)N[C@@H]12,7.08,,5,7.81,12,23.2,3.76,,32.5,,10.9,23.8,,,,,
Fc1ccc(OCc2ccc3nc(-c4ccccc4)c(Cl)nc3c2)cc1,39,89.8,60,60.6,> 100,> 100,> 100,,50.1,,> 100,85.8,,,,,
CCOP(=O)(CC1OC(CO)C(O)C1O)OCC (centres undefined),> 100,> 100,> 100,> 100,,> 100,> 100,,> 100,,> 100,> 100,,,,,
O=C1CN(c2ccccc2)C(=O)C1C(=O)Nc1ccc(Cl)c(Cl)c1 (centres undefined),14.9,> 100,11.7,,,,13.1,,,,,,,,,,
Cn1c(=O)c2[nH]c(Nc3cccc(Cl)c3)nc2n(C)c1=O,,> 10,> 10,> 10,> 10,> 10,> 10,,,,> 10,,,,,,
Cc1nn(C(=O)c2ccccc2O)c2c1C(c1ccc([N+](=O)[O-])cc1)SC(N)=N2 (centres undefined),> 10,> 9.13,> 10,> 10,> 10,> 10,> 10,,> 10,,> 10,> 10,,,,,
COc1ccc2c(c1)CCC(CN1CCN(CCOC(c3ccccc3)c3ccccc3)CC1)C2O (centres undefined),28,53.4,35.7,31.5,28.9,37.5,23,,23.1,,32.5,27.1,,,,,
CN1C2CCC1C(CO)C(=O)C2 (centres undefined),> 100,27.4,59.5,> 100,> 100,56.5,75.3,,> 100,,> 100,> 100,,,,,
Cc1ccc2nc(Nc3ccccc3C)c(Nc3ccccc3C)nc2c1,> 70,> 80.6,> 100,> 95.7,> 100,> 100,58.7,,69.6,,39.5,,,,,,
N#Cc1ccnc(C(=O)N2CCCC2C(=O)O)c1 (centres undefined),> 100,> 100,> 100,> 100,> 100,> 100,> 100,,> 100,,> 100,> 100,,,,,
Fc1cccc(F)c1C1SCc2nc3cc(Cl)ccc3n21 (centres undefined),> 31.6,> 100,54.7,> 65.9,> 100,34,> 100,,,,40,> 45.6,,,,,
CSc1ncnc2c1cnn2Cc1cn(COCC(O)CO)nn1 (centres undefined),> 100,> 100,> 100,> 100,> 100,> 100,> 100,,> 100,,> 100,> 100,,,,,
O=C(O[C@@H](/C=C/c1ccccc1)P1(=O)N(Cc2ccccc2)[C@@H]2CCCC[C@H]2N1Cc1ccccc1)c1ccccc1,> 100,80.9,,4.41,> 100,> 100,> 100,,> 100,,11.1,> 100,,,,,
O=C1c2cc3c(cc2-c2c1c1cc(F)c(F)cc1c(=O)n2C[C@H](O)CO)OCO3,,> 100,> 100,0.206,> 100,,1.74,0.0834,0.254,0.0724,,2.22,0.0349,0.0317,0.0288,0.0727,0.19
